Measured values as given in US20120029187A1, “HALOALKYLSULFONANILIDE DERIVATIVE” (Nissan Chemical Industries, Ltd., priority 2009, published 2012).

Tests used:
Assay type in all cases: in vivo
Italian ryegrass [1] = assay: Test Example 3: herbicidal effects in soil treatment; conditions: dose 6.3 g/a
Method in brief: (§1)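 Seeds were sown in sterilized diluvial soil and covered with about 1.5 cm of soil. Compounds, formulated as emulsifiable concentrates and diluted with water, were sprayed evenly over the soil surface at set doses in g/a. Herbicidal effect was scored on a rating scale three weeks later.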

redroot pigweed [2] = assay: as above; conditions: dose 6.3 g/a
Method in brief: as §1

wild oat [3] = assay: as above; conditions: dose 6.3 g/a
Method in brief: as §1

barnyardgrass [4] = assay: as above; conditions: dose 6.3 g/a
Method in brief: as §1

giant foxtail [5] = assay: as above; conditions: dose 6.3 g/a
Method in brief: as §1

common ragweed [6] = assay: as above; conditions: dose 6.3 g/a
Method in brief: as §1

water foxtail [7] = assay: as above; conditions: dose 6.3 g/a
Method in brief: as §1

common lambsquater [8] = assay: as above; conditions: dose 6.3 g/a
Method in brief: as §1

common chickweed [9] = assay: as above; conditions: dose 6.3 g/a
Method in brief: as §1

large crabgrass [10] = assay: as above; conditions: dose 6.3 g/a
Method in brief: as §1

barnyardgrass [11] = assay: Test Example 2: herbicidal effects during the vegetation period under submerged conditions; conditions: treatment during the vegetation period under submerged conditions; dose 2.52 g/a
Method in brief: (§2)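 Barnyardgrass, bulrush and ducksalad were co-sown in alluvial soil flooded to 4 cm and grown in a greenhouse at 25 to 30° C. At the 1- or 2-leaf stage, water-diluted emulsifiable concentrates went onto the water surface at set doses (g/a). Herbicidal effect was scored three weeks later on a graded scale.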

ducksalad [12] = assay: as above; conditions: treatment during the vegetation period under submerged conditions; dose 2.52 g/a
Method in brief: as §2

bulrush [13] = assay: as above; conditions: treatment during the vegetation period under submerged conditions; dose 2.52 g/a
Method in brief: as §2

barnyardgrass [14] = assay: Test Example 1: herbicidal effects in preemergence treatment under submerged conditions; conditions: dose 2.52 g/a
Method in brief: (§3)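 Submerged conditions, 4 cm water over alluvial soil. Weeds sown and 2.5-leaf rice transplanted; compound applied preemergence to water surface, doses in g per are. Greenhouse, 25 to 30° C., three weeks, then 0–5 mortality rating.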

ducksalad [15] = assay: as above; conditions: dose 2.52 g/a
Method in brief: as §3

bulrush [16] = assay: as above; conditions: dose 2.52 g/a
Method in brief: as §3

transplanted rice = assay: Test Example 1: preemergence treatment under submerged conditions, effect on crop; conditions: dose 2.52 g/a
Method in brief: as §3

Italian ryegrass [17] = assay: Test Example 4: herbicidal effect in foliage treatment; conditions: dose 6.3 g/a, three weeks after application
Method in brief: (§4)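 Sowing in sterilized diluvial soil, ~1.5 cm cover; growth 14 d, 25–30° C greenhouse; foliar spray of water-diluted EC at predetermined g/a; scoring 3 wk later on graded scale.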

redroot pigweed [18] = assay: as above; conditions: dose 6.3 g/a, three weeks after application
Method in brief: as §4

wild oat [19] = assay: as above; conditions: dose 6.3 g/a, three weeks after application
Method in brief: as §4

barnyardgrass [20] = assay: as above; conditions: dose 6.3 g/a, three weeks after application
Method in brief: as §4

giant foxtail [21] = assay: as above; conditions: dose 6.3 g/a, three weeks after application
Method in brief: as §4

common ragweed [22] = assay: as above; conditions: dose 6.3 g/a, three weeks after application
Method in brief: as §4

water foxtail [23] = assay: as above; conditions: dose 6.3 g/a, three weeks after application
Method in brief: as §4

beadstraw = assay: as above; conditions: dose 6.3 g/a, three weeks after application
Method in brief: as §4

common lambsquater [24] = assay: as above; conditions: dose 6.3 g/a, three weeks after application
Method in brief: as §4

common chickweed [25] = assay: as above; conditions: dose 6.3 g/a, three weeks after application
Method in brief: as §4

large crabgrass [26] = assay: as above; conditions: dose 6.3 g/a, three weeks after application
Method in brief: as §4

Compound	H: Italian ryegrass, herbicidal effect (evaluation scale 0-5) (Italian ryegrass [1])	K: redroot pigweed, herbicidal effect (evaluation scale 0-5) (redroot pigweed [2])	F: wild oat, herbicidal effect (evaluation scale 0-5) (wild oat [3])	A: barnyardgrass, herbicidal effect (evaluation scale 0-5) (barnyardgrass [4])	E: giant foxtail, herbicidal effect (evaluation scale 0-5) (giant foxtail [5])	J: common ragweed, herbicidal effect (evaluation scale 0-5) (common ragweed [6])	G: water foxtail, herbicidal effect (evaluation scale 0-5) (water foxtail [7])	L: common lambsquater, herbicidal effect (evaluation scale 0-5) (common lambsquater [8])	N: common chickweed, herbicidal effect (evaluation scale 0-5) (common chickweed [9])	D: large crabgrass, herbicidal effect (evaluation scale 0-5) (large crabgrass [10])	A: barnyardgrass, herbicidal effect (evaluation scale 0-5) (barnyardgrass [11])	C: ducksalad, herbicidal effect (evaluation scale 0-5) (ducksalad [12])	B: bulrush, herbicidal effect (evaluation scale 0-5) (bulrush [13])	A: barnyardgrass, herbicidal effect (evaluation scale 0-5) (barnyardgrass [14])	C: ducksalad, herbicidal effect (evaluation scale 0-5) (ducksalad [15])	B: bulrush, herbicidal effect (evaluation scale 0-5) (bulrush [16])	a: transplanted rice, effect on crop (evaluation scale 0-5) (transplanted rice)	H: Italian ryegrass, herbicidal effect (Italian ryegrass [17])	K: redroot pigweed, herbicidal effect (redroot pigweed [18])	F: wild oat, herbicidal effect (wild oat [19])	further results
CC(C)COC(=O)N(c1ccccc1CN1COC(C)CC1=O)S(=O)(=O)C(F)(F)F (centres unmarked) [II-8]	0 (mortality of less than 5% (almost ineffective))	0 (mortality of less than 5% (almost ineffective))	0 (mortality of less than 5% (almost ineffective))	5 (mortality of 90% or above (nearly complete death))	4 (mortality of at least 70% and less than 90%)	5 (mortality of 90% or above (nearly complete death))	5 (mortality of 90% or above (nearly complete death))	4 (mortality of at least 70% and less than 90%)	3 (mortality of at least 40% and less than 70%)	4 (mortality of at least 70% and less than 90%)	5 (mortality of 90% or above (nearly complete death))	4 (mortality of at least 70% and less than 90%)	5 (mortality of 90% or above (nearly complete death))	5 (mortality of 90% or above (nearly complete death))	5 (mortality of 90% or above (nearly complete death))	5 (mortality of 90% or above (nearly complete death))	0 (mortality of less than 5% (almost ineffective))	0 (mortality of less than 5% (almost ineffective))	0 (mortality of less than 5% (almost ineffective))	0 (mortality of less than 5% (almost ineffective))	A: barnyardgrass, herbicidal effect (barnyardgrass [20]): 5 (mortality of 90% or above (nearly complete death)); E: giant foxtail, herbicidal effect (giant foxtail [21]): 4 (mortality of at least 70% and less than 90%); J: common ragweed, herbicidal effect (common ragweed [22]): 4 (mortality of at least 70% and less than 90%); G: water foxtail, herbicidal effect (water foxtail [23]): 5 (mortality of 90% or above (nearly complete death)); O: beadstraw, herbicidal effect (beadstraw): 1 (mortality of at least 5% and less than 20%); L: common lambsquater, herbicidal effect (common lambsquater [24]): 5 (mortality of 90% or above (nearly complete death)); N: common chickweed, herbicidal effect (common chickweed [25]): 1 (mortality of at least 5% and less than 20%); D: large crabgrass, herbicidal effect (large crabgrass [26]): 5 (mortality of 90% or above (nearly complete death))
CC1CC(=O)N(Cc2ccccc2NS(=O)(=O)C(F)(F)F)CO1 (centres unmarked) [II-4]	3 (mortality of at least 40% and less than 70%)	0 (mortality of less than 5% (almost ineffective))	0 (mortality of less than 5% (almost ineffective))	5 (mortality of 90% or above (nearly complete death))	5 (mortality of 90% or above (nearly complete death))	4 (mortality of at least 70% and less than 90%)	5 (mortality of 90% or above (nearly complete death))	4 (mortality of at least 70% and less than 90%)	5 (mortality of 90% or above (nearly complete death))	5 (mortality of 90% or above (nearly complete death))	5 (mortality of 90% or above (nearly complete death))	5 (mortality of 90% or above (nearly complete death))	5 (mortality of 90% or above (nearly complete death))	5 (mortality of 90% or above (nearly complete death))	5 (mortality of 90% or above (nearly complete death))	5 (mortality of 90% or above (nearly complete death))	0 (mortality of less than 5% (almost ineffective))	3 (mortality of at least 40% and less than 70%)	0 (mortality of less than 5% (almost ineffective))	0 (mortality of less than 5% (almost ineffective))	A: barnyardgrass, herbicidal effect (barnyardgrass [20]): 5 (mortality of 90% or above (nearly complete death)); E: giant foxtail, herbicidal effect (giant foxtail [21]): 5 (mortality of 90% or above (nearly complete death)); J: common ragweed, herbicidal effect (common ragweed [22]): 5 (mortality of 90% or above (nearly complete death)); G: water foxtail, herbicidal effect (water foxtail [23]): 5 (mortality of 90% or above (nearly complete death)); O: beadstraw, herbicidal effect (beadstraw): 4 (mortality of at least 70% and less than 90%); L: common lambsquater, herbicidal effect (common lambsquater [24]): 3 (mortality of at least 40% and less than 70%); N: common chickweed, herbicidal effect (common chickweed [25]): 3 (mortality of at least 40% and less than 70%); D: large crabgrass, herbicidal effect (large crabgrass [26]): 5 (mortality of 90% or above (nearly complete death))
